Measurements reported in US20240116985A1, “STAPLED PEPTIDES AND METHODS THEREOF” (priority 2020, published 2024).
Converted amounts (≈) assume the structure as drawn. Read-outs that look alike come from different tables or passages of the source.

Assays:
Solubility in PBS = assay type: physicochemical
How it was run: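 Read-out is the HPLC peak area of the supernatant from ultracentrifuged PBS solution, scaled against a 50 μM peptide DMSO injection; value reported as [(PBS area)/(DMSO area)]*50 uM.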

CHI Log D procedure = assay type: physicochemical
[1] = target: T1, full-length beta-Catenin (Uniprot ID P35222) (Homo sapiens, UniProt P35222); assay: Fluorescence polarization IC50 (beta-catenin / 5FAM-TCF4 10-53 competition); assay type: binding
T1 construct: 10 nM full-length beta-Catenin (Uniprot ID P35222)
T1 sequence (P35222 1-781): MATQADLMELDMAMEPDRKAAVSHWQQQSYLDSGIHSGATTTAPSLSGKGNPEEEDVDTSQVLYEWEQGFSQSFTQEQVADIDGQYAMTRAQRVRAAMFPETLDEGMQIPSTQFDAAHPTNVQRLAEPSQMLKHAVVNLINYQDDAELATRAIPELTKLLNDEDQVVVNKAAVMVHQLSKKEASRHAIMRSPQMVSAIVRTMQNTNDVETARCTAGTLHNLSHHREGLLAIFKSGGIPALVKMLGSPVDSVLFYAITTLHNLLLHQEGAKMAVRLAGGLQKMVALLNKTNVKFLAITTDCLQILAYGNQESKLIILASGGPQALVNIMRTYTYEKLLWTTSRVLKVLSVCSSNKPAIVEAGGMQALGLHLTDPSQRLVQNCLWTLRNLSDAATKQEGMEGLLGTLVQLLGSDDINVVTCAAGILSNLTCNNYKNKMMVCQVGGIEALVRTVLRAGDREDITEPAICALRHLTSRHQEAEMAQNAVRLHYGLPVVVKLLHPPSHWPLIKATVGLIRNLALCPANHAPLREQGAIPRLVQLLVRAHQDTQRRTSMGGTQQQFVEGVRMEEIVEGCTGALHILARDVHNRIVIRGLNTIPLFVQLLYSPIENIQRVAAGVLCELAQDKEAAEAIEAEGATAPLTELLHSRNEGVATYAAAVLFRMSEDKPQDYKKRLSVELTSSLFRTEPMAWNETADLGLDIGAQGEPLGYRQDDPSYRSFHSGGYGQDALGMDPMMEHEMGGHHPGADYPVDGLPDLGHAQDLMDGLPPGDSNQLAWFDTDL

[2] = fluorescence polarization, beta-catenin, read-out: FP EC50
[3] = FP EC50 (nM), fluorescence polarization, beta-catenin

Row | Solubility (Solubility in PBS) [µM] | CHI Log D (CHI Log D procedure; pH 7.4) | IC50 [1, 2] [nM] | IC50 ([1]; read-out: beta-Catenin FP IC50) [nM] | chromatographic logD (CHI Log D procedure; pH 7.4, CHI Log D) | Solubility (Solubility in PBS; Solubility (uM)) [µM] | Compound | chromatographic logD (CHI Log D procedure; pH 7.4) | IC50 [1, 3] [nM]
1 | 40 (≈ 80.5 µg/mL) | 2.137 | 13 | 13 |  |  | CC(=O)N1CCC[C@]12CC=CCCCC1(CCCC=CCCCCOC(=O)N3CC[C@@](C(=O)N[C@@H](Cc4ccsc4)C(=O)N[C@@H](Cc4csc5ccccc45)C(=O)N[C@@H](Cc4c[nH]cn4)C(=O)N[C@@H](C)C(N)=O)(C3)NC(=O)[C@H](CC(N)=O)NC(=O)[C@H](Cc3ccccc3)NC(=O)[C@H](C)NC(=O)[C@H](C)NC(=O)[C@H](CC(=O)O)NC(=O)[C@H](CC(=O)O)NC1=O)NC(=O)[C@H](CC(C)(C)C)NC(=O)[C@H](CC(=O)O)NC2=O (stereo partly drawn) [I-828, Ac-PL3-Asp-Npg-B5-Asp-Asp-Ala-Ala-Phe-Asn-PyrS3-3Thi-BztA-His-Ala-NH2] |  | 
2 | 10 (≈ 19.8 µg/mL) |  |  | 154 | 2.49 |  | CC(=O)N1CCC[C@]12CC=CCCCC1(CCCC=CCCCOC(=O)N3CC[C@@](C(=O)N[C@@H](Cc4ccsc4)C(=O)N[C@@H](Cc4csc5ccccc45)C(=O)N[C@@H](Cc4c[nH]cn4)C(N)=O)(C3)NC(=O)[C@H](CC(N)=O)NC(=O)[C@H](Cc3ccccc3)NC(=O)[C@H](C)NC(=O)[C@H](C)NC(=O)[C@H](Cc3ccc(O)cc3)NC(=O)[C@H](CC(=O)O)NC1=O)NC(=O)[C@H](CC(C)(C)C)NC(=O)[C@H](CC(=O)O)NC2=O (stereo partly drawn) [I-843, Ac-PL3-Asp-Npg-B5-Asp-Tyr-Ala-Ala-Phe-Asn-PyrS2-3Thi-BztA-His-NH2] |  | 
3 | 10 (≈ 19.1 µg/mL) |  |  | 7 | 2.42 |  | CC(=O)N1CCC[C@]12CC=CCCCC1(CCCC=CCCCOC(=O)N3CC[C@@](C(=O)N[C@@H](Cc4ccsc4)C(=O)N[C@@H](Cc4csc5ccccc45)C(=O)N[C@@H](Cc4c[nH]cn4)C(N)=O)(C3)NC(=O)[C@H](CC(N)=O)NC(=O)[C@H](Cc3ccccc3)NC(=O)[C@H](C)NC(=O)[C@H](C)NC(=O)[C@H]([C@@H](C)O)NC(=O)[C@H](CC(=O)O)NC1=O)NC(=O)[C@H](CC(C)(C)C)NC(=O)[C@H](CC(=O)O)NC2=O (stereo partly drawn) [I-845, Ac-PL3-Asp-Npg-B5-Asp-Thr-Ala-Ala-Phe-Asn-PyrS2-3Thi-BztA-His-NH2] |  | 
4 | 10 (≈ 17.8 µg/mL) | 2.722 | 61 | 61 |  |  | CC(=O)N1CCC[C@]12CC=CCCCC1(CCCC=CCCCOC(=O)N3CC[C@@](C(=O)N[C@@H](Cc4ccsc4)C(=O)N[C@@H](Cc4csc5ccccc45)C(N)=O)(C3)NC(=O)[C@H](CC(N)=O)NC(=O)[C@H](Cc3ccccc3)NC(=O)[C@H](C)NC(=O)[C@H](C)NC(=O)[C@H]([C@@H](C)O)NC(=O)[C@H](CC(=O)O)NC1=O)NC(=O)[C@H](CC(C)(C)C)NC(=O)[C@H](CC(=O)O)NC2=O (stereo partly drawn) [I-860, Ac-PL3-Asp-Npg-B5-Asp-Thr-Ala-Ala-Phe-Asn-PyrS2-3Thi-BztA-NH2] |  | 
5 |  |  |  | 40 | 2.55 | 20 (≈ 36.6 µg/mL) | CC(=O)N1CCC[C@]12CC=CCCCC1(CCCC=CCCCOC(=O)N3CC[C@@](C(=O)N[C@@H](Cc4ccsc4)C(=O)N[C@@H](Cc4csc5ccccc45)C(N)=O)(C3)NC(=O)[C@H](CC(N)=O)NC(=O)[C@H](Cc3ccccc3)NC(=O)[C@H](C)NC(=O)[C@H](C)NC(=O)[C@H](CCCNC(N)=O)NC(=O)[C@H](CC(=O)O)NC1=O)NC(=O)[C@H](CC(C)(C)C)NC(=O)[C@H](CC(=O)O)NC2=O (stereo partly drawn) [I-861, Ac-PL3-Asp-Npg-B5-Asp-Cit-Ala-Ala-Phe-Asn-PyrS2-3Thi-BztA-NH2] |  | 
6 | 10 (≈ 17.9 µg/mL) |  |  | 123 | 2.85 |  | CC(=O)N1CCC[C@]12CC=CCCCC1(CCCC=CCCCOC(=O)N3CC[C@@](C(=O)N[C@@H](Cc4ccsc4)C(=O)N[C@@H](Cc4csc5ccccc45)C(N)=O)(C3)NC(=O)[C@H](CC(N)=O)NC(=O)[C@H](Cc3ccccc3)NC(=O)[C@H](C)NC(=O)[C@H](C)NC(=O)[C@H](CC(C)C)NC(=O)[C@H](CC(=O)O)NC1=O)NC(=O)[C@H](CC(C)(C)C)NC(=O)[C@H](CC(=O)O)NC2=O (stereo partly drawn) [I-862, Ac-PL3-Asp-Npg-B5-Asp-Leu-Ala-Ala-Phe-Asn-PyrS2-3Thi-BztA-NH2] |  | 
7 |  |  |  | 53 | 2.4 | 42 (≈ 94.2 µg/mL) | CC(=O)N1CCC[C@]12CC=CCCCC1(CCCC=CCCCOC(=O)N3CC[C@@](C(=O)N[C@@H](Cc4ccsc4)C(=O)N[C@@H](Cc4csc5ccccc45)C(=O)N[C@@H](CCC(N)=O)C(N)=O)(C3)NC(=O)[C@H](CC(N)=O)NC(=O)[C@H](Cc3ccccc3)NC(=O)[C@H](CCCCNC(=O)CCc3cc(C(F)(F)F)cc(C(F)(F)F)c3)NC(=O)[C@H](C)NC(=O)[C@H](CC(=O)O)NC(=O)[C@H](CC(=O)O)NC1=O)NC(=O)[C@H](CC(C)(C)C)NC(=O)[C@H](CC(=O)O)NC2=O (stereo partly drawn) [I-883, Ac-PL3-Asp-Npg-B5-Asp-Asp-Ala-[35CF3PhPr]Lys-Phe-Asn-PyrS2-3Thi-BztA-Gln-NH2] |  | 
8 |  |  |  | 13 | 1.39 | 21 (≈ 45.9 µg/mL) | CC(=O)N1CCC[C@]12CC=CCCCC1(CCCC=CCCCOC(=O)N3CC[C@@](C(=O)N[C@@H](Cc4ccsc4)C(=O)N[C@@H](Cc4csc5ccccc45)C(=O)N[C@@H](CCC(N)=O)C(N)=O)(C3)NC(=O)[C@H](CC(N)=O)NC(=O)[C@H](Cc3ccccc3)NC(=O)[C@H](CCCCNC(=O)C3CCN(C4CCN(C)CC4)CC3)NC(=O)[C@H](C)NC(=O)[C@H](CC(=O)O)NC(=O)[C@H](CC(=O)O)NC1=O)NC(=O)[C@H](CC(C)(C)C)NC(=O)[C@H](CC(=O)O)NC2=O (stereo partly drawn) [I-888, Ac-PL3-Asp-Npg-B5-Asp-Asp-Ala-[MeBipipAc]Lys-Phe-Asn-PyrS2-3Thi-BztA-Gln-NH2] |  | 

Row | Compound | Solubility (Solubility in PBS) [µM] | CHI Log D (CHI Log D procedure; pH 7.4) | IC50 [1, 2] [nM] | IC50 ([1]; read-out: beta-Catenin FP IC50) [nM] | chromatographic logD (CHI Log D procedure; pH 7.4, CHI Log D) | Solubility (Solubility in PBS; Solubility (uM)) [µM] | chromatographic logD (CHI Log D procedure; pH 7.4) | IC50 [1, 3] [nM]
9 | CC(=O)N1CCC[C@]12CC=CCCCC1(CCCC=CCCCOC(=O)N3CC[C@@](C(=O)N[C@@H](Cc4ccsc4)C(=O)N[C@@H](Cc4csc5ccccc45)C(=O)N[C@@H](CCCCNC(=O)CN=[N+]=[N-])C(N)=O)(C3)NC(=O)[C@H](CC(N)=O)NC(=O)[C@H](Cc3ccccc3)NC(=O)[C@H](C)NC(=O)[C@H](C)NC(=O)[C@H](CC(=O)O)NC(=O)[C@H](CC(=O)O)NC1=O)NC(=O)[C@H](CC(C)(C)C)NC(=O)[C@H](CC(=O)O)NC2=O (stereo partly drawn) [I-878, Ac-PL3-Asp-Npg-B5-Asp-Asp-Ala-Ala-Phe-Asn-PyrS2-3Thi-BztA-[AzAc]Lys-NH2] | 46 (≈ 92.1 µg/mL) |  |  |  |  |  | 2.09 | 6
10 | CC(=O)N1CCC[C@]12CC=CCCCC1(CCCC=CCCCOC(=O)N3CC[C@@](C(=O)N[C@@H](Cc4ccsc4)C(=O)N[C@@H](Cc4csc5ccccc45)C(=O)N[C@@H](CCC(N)=O)C(N)=O)(C3)NC(=O)[C@H](CC(N)=O)NC(=O)[C@H](Cc3ccccc3)NC(=O)[C@H](C)NC(=O)[C@H](CCCCNC(=O)CN=[N+]=[N-])NC(=O)[C@H](CC(=O)O)NC(=O)[C@H](CC(=O)O)NC1=O)NC(=O)[C@H](CC(C)(C)C)NC(=O)[C@H](CC(=O)O)NC2=O (stereo partly drawn) [I-879, Ac-PL3-Asp-Npg-B5-Asp-Asp-[AzAc]Lys-Ala-Phe-Asn-PyrS2-3Thi-BztA-Gln-NH2] | 45 (≈ 92.6 µg/mL) |  |  |  |  |  | 2 | 6
11 | CC(=O)N1CCC[C@]12CC=CCCCC1(CCCC=CCCCOC(=O)N3CC[C@@](C(=O)N[C@@H](Cc4ccsc4)C(=O)N[C@@H](Cc4csc5ccccc45)C(=O)N[C@@H](CCC(N)=O)C(N)=O)(C3)NC(=O)[C@H](CC(N)=O)NC(=O)[C@H](Cc3ccccc3)NC(=O)[C@H](C)NC(=O)[C@H](C)NC(=O)[C@H](CC(=O)O)NC(=O)[C@H](CC(=O)O)NC1=O)NC(=O)[C@H](CCCCNC(=O)CN=[N+]=[N-])NC(=O)[C@H](CC(=O)O)NC2=O (stereo partly drawn) [I-880, Ac-PL3-Asp-[AzAc]Lys-B5-Asp-Asp-Ala-Ala-Phe-Asn-PyrS2-3Thi-BztA-Gln-NH2] | 42 (≈ 84.1 µg/mL) |  |  |  |  |  | 1.72 | 6
